This is an account of results in US20060205669A1, “G-type peptides and other agents to ameliorate atherosclerosis and other pathologies” (The Regents of the University of California, priority 2004, published 2006).

The test system of one assay is ApoE null mice. Kind of assay: HDL paraoxonase activity in apoE null mice. Particulars: FIG. 16. The assay is classed as in vivo. How it is done:
Female apoE null mice 4 months of age (n=4 per group) were administered by intraperitoneal injection either scrambled D-4F (a non-active control peptide) or D-4F at 10 μg/mouse or the peptide Ac-KWIYHLTEGSTDLRTEG-NH2 (SEQ ID NO:643) synthesized from L-amino acids (L-ApoM) at 50 μg/mouse. The mice were bled 2 or 6 hours later and their HDL isolated by FPLC and the paraoxonase activity in the HDL determined and plotted on the X-axis. Other 4-month-old female apoE null mice (n=4 per group) were administered by gastric gavage the peptide Ac-KWIYHLTEGSTDLRTEG-NH2 (SEQ ID NO:643) synthesized from L-amino acids (L-ApoM) at 100 μg/mouse (L-ApoM by gavage). The mice were bled 6 hours later and their HDL isolated by FPLC and the paraoxonase activity in the HDL determined and plotted on the X-axis.

A further assay deals with cynomologous monkeys. Kind of assay: Monkey HDL and LDL after oral peptide tested for monocyte chemotactic activity in human artery wall cell cultures. The assay is classed as in vivo. The note with it: five milligrams by stomach tube, 6 hours. The protocol:
Five milligrams of the peptide LAEYHAK (SEQ ID NO: 8) synthesized from all D-amino acids was administered to each of four cynomologous monkeys in 2.0 mL of water by stomach tube and followed with 2.0 mL of water as a wash. Six hours later the monkeys were bled and their plasma fractionated by fast protein liquid chromatography (FPLC) and tested in human artery wall cell cultures.

As for Ac-KWIYHLTEGSTDLRTEG-NH2 [L-ApoM], the HDL paraoxonase activity entry is “increased paraoxonase activity” in the assay on ApoE null mice (gastric gavage 100 μg/mouse, bled 6 hours later) and “increased paraoxonase activity” with ApoE null mice (intraperitoneal injection 50 μg/mouse, bled 2 or 6 hours later).

With “LAEYHAK (Synthetic peptide. Can be protected or unprotected as shown in specification.)”, the “monocyte chemotactic activity with hLDL plus monkey HDL taken after peptide versus time zero” value in the assay with cynomologous monkeys (monkey HDL 50 μg/mL HDL-cholesterol, FIG. 17 panel B) is “significantly reduced monocyte chemotactic activity”. Further, in the assay with cynomologous monkeys (monkey LDL 100 μg/mL LDL-cholesterol, FIG. 17 panel C), the “monocyte chemotactic activity induced by monkey LDL taken after peptide versus time zero” value is “significantly less monocyte chemotactic activity”.
